Assay results: patent publication US20210309619A1, “ISOXAZOLIN-5-ONE DERIVATIVES AND HERBICIDES CONTAINING THE SAME AS ACTIVE INGREDIENTS” (HOKKO CHEMICAL INDUSTRY CO., LTD., priority 2018, published 2021)

Experiments:
Type in all cases: in vivo
[1] = test system: Scirpus juncoides; experiment: Herbicidal effect test by treatment of rice paddy soil (Test Example 1); details: 120 g/10 a, treated immediately after seeding, 14 days after treatment
Method: (§1) Wagner pots with an area of 1/10000 ares were filled with a paddy soil, and a compound fertilizer (N:P:K=17:17:17) was mixed after water was added, followed by soil puddling. Then, Echinochloa crus-galli, broad leaf weeds (Lindernia pyxidaria and Monochoria vaginalis) and Scirpus juncoides, 30 seeds each, were sown in a depth of 0 to 1 cm. Water was poured immediately after seeding, and the water depth was kept at about 3 cm. A subsequent management was conducted in a glass greenhouse. Immediately after that, emulsions prepared using the compounds in Table 3 below according to Formulation Example 5 were diluted with water, and a certain amount of the water-diluted agent solutions were dropped. A converted amount of the applied active ingredient corresponded to 120 g per 10 ares.
(§2) This test was conducted in a double system per one agent solution concentration area, and the herbicidal rates (%) were determined by the following equation (Math. 1) 14 days after the treatment with the agents.
(§3) Herbicidal Rate (%)={1−(Average Dry Weight (g) of Plant of Treated Area)/(Average Dry Weight (g) of Plant of Untreated Area)}×100 [Math. 1]

[2] = test system: Echinochloa crus-galli; experiment: as above; details: 120 g/10 a, treated immediately after seeding, 14 days after treatment
Method: as §1, §2, §3

[3] = test system: Lindernia pyxidaria; experiment: as above; details: 120 g/10 a, treated immediately after seeding, 14 days after treatment
Method: as §1, §2, §3

[4] = test system: Monochoria vaginalis; experiment: as above; details: 120 g/10 a, treated immediately after seeding, 14 days after treatment
Method: as §1, §2, §3

[5] = test system: Echinochloa crus-galli; experiment: Herbicidal effect test by treatment of dry field farming soil (Test Example 3); details: 120 g/10 a, sprayed one day after seeding, 14 days after treatment
Excerpt: (§4) Herbicidal Rate (%)={1−(Average Dry Weight (g) of Plant of Treated Area)/(Average Dry Weight (g) of Plant of Untreated Area)}×100 [Math. 1] Pots with a size of 36 cm^2 were filled with a dry field farming soil (alluvium). The soil of the top layer of 1 cm and seeds of weeds, namely southern crabgrass, Echinochloa crus-galli, Chenopodium album and Amaranthus viridis, 20 seeds each, were evenly mixed, and the top layer was gently pressed. Emulsions prepared using the compounds in Table 5 below according to Formulation Example 5 were diluted with water one day after seeding, and the water-diluted agent solutions were sprayed to the soil surfaces at a ratio of 100 liters per 10 ares. A converted amount of the applied active ingredient corresponded to 120 g per 10 ares. The herbicidal effects were evaluated by the same standard as that in Test Example 1, 14 days after the treatment with the agents. In this regard, the compound numbers in Table 5 are the same as those in Table 1 and Table 2 above.

[6] = test system: southern crabgrass; experiment: as above; details: 120 g/10 a, sprayed one day after seeding, 14 days after treatment
Excerpt: as §4

[7] = test system: Amaranthus viridis; experiment: as above; details: 120 g/10 a, sprayed one day after seeding, 14 days after treatment
Excerpt: as §4

[8] = test system: Chenopodium album; experiment: as above; details: 120 g/10 a, sprayed one day after seeding, 14 days after treatment
Excerpt: as §4

[9] = test system: Echinochloa crus-galli; experiment: Herbicidal effect test by treatment of stem and leaf in dry field farming (Test Example 4); details: 120 g/10 a, stem and leaf treatment seven days after seeding, 14 days after treatment
Excerpt: as §4, with “Table 6” for “Table 5”, “water seven days” for “water one day”

[10] = test system: southern crabgrass; experiment: as above; details: 120 g/10 a, stem and leaf treatment seven days after seeding, 14 days after treatment
Excerpt: as §4, with “Table 6” for “Table 5”, “water seven days” for “water one day”

[11] = test system: Amaranthus viridis; experiment: as above; details: 120 g/10 a, stem and leaf treatment seven days after seeding, 14 days after treatment
Excerpt: as §4, with “Table 6” for “Table 5”, “water seven days” for “water one day”

[12] = test system: Chenopodium album; experiment: as above; details: 120 g/10 a, stem and leaf treatment seven days after seeding, 14 days after treatment
Excerpt: as §4, with “Table 6” for “Table 5”, “water seven days” for “water one day”

[13] = test system: Scirpus juncoides; experiment: Herbicidal effect test by treatment during growing period in paddy rice cultivation (Test Example 2); details: 120 g/10 a, treated seven days after seeding, 14 days after treatment
Excerpt: as §3
as §1, with “after addition of water,” for “after water was added,”, “greenhouse. Emulsions” for “greenhouse. Immediately after that, emulsions”, “Table 4” for “Table 3”, “with water seven days after seeding,” for “with water,”, “ares. The test was conducted in a double system per one agent solution concentration area, and the herbicidal rates (%) were determined by the equation (Math. 1) 14 days after the treatment with the agents. In this regard, the compound numbers in Table 4 are the same as those in Table 1 and Table 2 above.” for “ares.”

[14] = test system: Echinochloa crus-galli; experiment: as above; details: 120 g/10 a, treated seven days after seeding, 14 days after treatment
Excerpt: as §3
as §1, with “after addition of water,” for “after water was added,”, “greenhouse. Emulsions” for “greenhouse. Immediately after that, emulsions”, “Table 4” for “Table 3”, “with water seven days after seeding,” for “with water,”, “ares. The test was conducted in a double system per one agent solution concentration area, and the herbicidal rates (%) were determined by the equation (Math. 1) 14 days after the treatment with the agents. In this regard, the compound numbers in Table 4 are the same as those in Table 1 and Table 2 above.” for “ares.”

[15] = test system: Lindernia pyxidaria; experiment: as above; details: 120 g/10 a, treated seven days after seeding, 14 days after treatment
Excerpt: as §3
as §1, with “after addition of water,” for “after water was added,”, “greenhouse. Emulsions” for “greenhouse. Immediately after that, emulsions”, “Table 4” for “Table 3”, “with water seven days after seeding,” for “with water,”, “ares. The test was conducted in a double system per one agent solution concentration area, and the herbicidal rates (%) were determined by the equation (Math. 1) 14 days after the treatment with the agents. In this regard, the compound numbers in Table 4 are the same as those in Table 1 and Table 2 above.” for “ares.”

[16] = test system: Monochoria vaginalis; experiment: as above; details: 120 g/10 a, treated seven days after seeding, 14 days after treatment
Excerpt: as §3
as §1, with “after addition of water,” for “after water was added,”, “greenhouse. Emulsions” for “greenhouse. Immediately after that, emulsions”, “Table 4” for “Table 3”, “with water seven days after seeding,” for “with water,”, “ares. The test was conducted in a double system per one agent solution concentration area, and the herbicidal rates (%) were determined by the equation (Math. 1) 14 days after the treatment with the agents. In this regard, the compound numbers in Table 4 are the same as those in Table 1 and Table 2 above.” for “ares.”

COC1CCCCC1n1oc(=O)c(Cc2ccccc2N(C(=O)Oc2ccccc2)S(=O)(=O)C(F)(F)F)c1C (single isomer, unassigned) [Compound 288]
Herbicidal rate, Scirpus juncoides [1]: 100% | Herbicidal rate, Echinochloa crus-galli [2]: 100% | Herbicidal rate, Lindernia pyxidaria [3]: 100% | Herbicidal rate, Monochoria vaginalis [4]: 100% | Herbicidal rate, Echinochloa crus-galli [5]: 90% | Herbicidal rate, southern crabgrass [6]: 90% | Herbicidal rate, Amaranthus viridis [7]: 40% | Herbicidal rate, Chenopodium album [8]: 60% | Herbicidal rate, Echinochloa crus-galli [9]: 90% | Herbicidal rate, southern crabgrass [10]: 90% | Herbicidal rate, Amaranthus viridis [11]: 90% | Herbicidal rate, Chenopodium album [12]: 90% | Herbicidal rate, Scirpus juncoides [13]: 90% | Herbicidal rate, Echinochloa crus-galli [14]: 100% | Herbicidal rate, Lindernia pyxidaria [15]: 90% | Herbicidal rate, Monochoria vaginalis [16]: 90%

COC1CCCCC1n1oc(=O)c(Cc2ccccc2N(C(=O)Oc2ccccc2)S(=O)(=O)C(F)(F)F)c1C (single isomer, unassigned) [Compound 289]
Herbicidal rate, Scirpus juncoides [1]: 100% | Herbicidal rate, Echinochloa crus-galli [2]: 100% | Herbicidal rate, Lindernia pyxidaria [3]: 100% | Herbicidal rate, Monochoria vaginalis [4]: 100% | Herbicidal rate, Echinochloa crus-galli [5]: 90% | Herbicidal rate, southern crabgrass [6]: 90% | Herbicidal rate, Amaranthus viridis [7]: 40% | Herbicidal rate, Chenopodium album [8]: 60% | Herbicidal rate, Amaranthus viridis [11]: 90% | Herbicidal rate, Chenopodium album [12]: 90% | Herbicidal rate, Scirpus juncoides [13]: 90% | Herbicidal rate, Lindernia pyxidaria [15]: 90% | Herbicidal rate, Monochoria vaginalis [16]: 90%

COC1CCCC1n1oc(=O)c(Cc2ccccc2NS(=O)(=O)C(F)(F)F)c1C (centres unmarked) [Compound 59, 1,1,1-trifluoro-N-[2-[[(2-methoxycyclopentyl)-3-methyl-5-oxoisoxazol-4-yl]methyl]phenyl]methanesulfonamide]
Herbicidal rate, Scirpus juncoides [1]: 100% | Herbicidal rate, Echinochloa crus-galli [2]: 100% | Herbicidal rate, Lindernia pyxidaria [3]: 100% | Herbicidal rate, Monochoria vaginalis [4]: 100% | Herbicidal rate, Echinochloa crus-galli [5]: 90% | Herbicidal rate, southern crabgrass [6]: 90% | Herbicidal rate, Amaranthus viridis [7]: 60% | Herbicidal rate, Chenopodium album [8]: 60% | Herbicidal rate, Echinochloa crus-galli [9]: 90% | Herbicidal rate, southern crabgrass [10]: 90% | Herbicidal rate, Amaranthus viridis [11]: 90% | Herbicidal rate, Chenopodium album [12]: 90% | Herbicidal rate, Scirpus juncoides [13]: 90% | Herbicidal rate, Echinochloa crus-galli [14]: 100% | Herbicidal rate, Lindernia pyxidaria [15]: 80% | Herbicidal rate, Monochoria vaginalis [16]: 90%

COC1CCCCC1n1oc(=O)c(Cc2ccccc2NS(=O)(=O)C(F)(F)F)c1C (centres unmarked) [Compound 62, 1,1,1-trifluoro-N-[2-[[(2-methoxycyclohexyl)-3-methyl-5-oxoisoxazol-4-yl]methyl]phenyl]methanesulfonamide]
Herbicidal rate, Scirpus juncoides [1]: 100% | Herbicidal rate, Echinochloa crus-galli [2]: 100% | Herbicidal rate, Lindernia pyxidaria [3]: 100% | Herbicidal rate, Monochoria vaginalis [4]: 100% | Herbicidal rate, Echinochloa crus-galli [5]: 90% | Herbicidal rate, southern crabgrass [6]: 90% | Herbicidal rate, Amaranthus viridis [7]: 60% | Herbicidal rate, Chenopodium album [8]: 60% | Herbicidal rate, Echinochloa crus-galli [9]: 90% | Herbicidal rate, southern crabgrass [10]: 90% | Herbicidal rate, Amaranthus viridis [11]: 90% | Herbicidal rate, Chenopodium album [12]: 90% | Herbicidal rate, Scirpus juncoides [13]: 90% | Herbicidal rate, Echinochloa crus-galli [14]: 100% | Herbicidal rate, Lindernia pyxidaria [15]: 80% | Herbicidal rate, Monochoria vaginalis [16]: 90%

COC1CCCC1n1oc(=O)c(Cc2ccccc2N(C(C)=O)S(=O)(=O)C(F)(F)F)c1C (centres unmarked) [Compound 107, N-[2-[[(2-methoxycyclopentyl)-3-methyl-5-oxoisoxazol-4-yl]methyl]phenyl]-N-(trifluoromethylsulfonyl)acetamide]
Herbicidal rate, Scirpus juncoides [1]: 100% | Herbicidal rate, Echinochloa crus-galli [2]: 100% | Herbicidal rate, Lindernia pyxidaria [3]: 100% | Herbicidal rate, Monochoria vaginalis [4]: 100% | Herbicidal rate, Echinochloa crus-galli [5]: 90% | Herbicidal rate, southern crabgrass [6]: 90% | Herbicidal rate, Amaranthus viridis [7]: 60% | Herbicidal rate, Chenopodium album [8]: 60% | Herbicidal rate, Echinochloa crus-galli [9]: 90% | Herbicidal rate, southern crabgrass [10]: 80% | Herbicidal rate, Amaranthus viridis [11]: 90% | Herbicidal rate, Chenopodium album [12]: 90% | Herbicidal rate, Scirpus juncoides [13]: 90% | Herbicidal rate, Echinochloa crus-galli [14]: 100% | Herbicidal rate, Lindernia pyxidaria [15]: 80% | Herbicidal rate, Monochoria vaginalis [16]: 90%

COC1CCCC1n1oc(=O)c(Cc2ccccc2N(C(=O)C(C)C)S(=O)(=O)C(F)(F)F)c1C (centres unmarked) [Compound 113]
Herbicidal rate, Scirpus juncoides [1]: 100% | Herbicidal rate, Echinochloa crus-galli [2]: 100% | Herbicidal rate, Lindernia pyxidaria [3]: 100% | Herbicidal rate, Monochoria vaginalis [4]: 100% | Herbicidal rate, Echinochloa crus-galli [5]: 90% | Herbicidal rate, southern crabgrass [6]: 90% | Herbicidal rate, Amaranthus viridis [7]: 60% | Herbicidal rate, Chenopodium album [8]: 60% | Herbicidal rate, Echinochloa crus-galli [9]: 90% | Herbicidal rate, southern crabgrass [10]: 80% | Herbicidal rate, Amaranthus viridis [11]: 90% | Herbicidal rate, Chenopodium album [12]: 90% | Herbicidal rate, Scirpus juncoides [13]: 90% | Herbicidal rate, Echinochloa crus-galli [14]: 100% | Herbicidal rate, Lindernia pyxidaria [15]: 80% | Herbicidal rate, Monochoria vaginalis [16]: 90%

COC1CCCC1n1oc(=O)c(Cc2ccccc2N(C(=O)CC(C)C)S(=O)(=O)C(F)(F)F)c1C (centres unmarked) [Compound 119]
Herbicidal rate, Scirpus juncoides [1]: 100% | Herbicidal rate, Echinochloa crus-galli [2]: 100% | Herbicidal rate, Lindernia pyxidaria [3]: 100% | Herbicidal rate, Monochoria vaginalis [4]: 100% | Herbicidal rate, Echinochloa crus-galli [5]: 90% | Herbicidal rate, southern crabgrass [6]: 90% | Herbicidal rate, Amaranthus viridis [7]: 60% | Herbicidal rate, Chenopodium album [8]: 60% | Herbicidal rate, Echinochloa crus-galli [9]: 90% | Herbicidal rate, southern crabgrass [10]: 80% | Herbicidal rate, Amaranthus viridis [11]: 90% | Herbicidal rate, Chenopodium album [12]: 90% | Herbicidal rate, Scirpus juncoides [13]: 90% | Herbicidal rate, Echinochloa crus-galli [14]: 100% | Herbicidal rate, Lindernia pyxidaria [15]: 80% | Herbicidal rate, Monochoria vaginalis [16]: 90%

COC1CCCC1n1oc(=O)c(Cc2ccccc2N(C(=O)c2ccc(Cl)cc2)S(=O)(=O)C(F)(F)F)c1C (centres unmarked) [Compound 147]
Herbicidal rate, Scirpus juncoides [1]: 100% | Herbicidal rate, Echinochloa crus-galli [2]: 100% | Herbicidal rate, Lindernia pyxidaria [3]: 100% | Herbicidal rate, Monochoria vaginalis [4]: 100% | Herbicidal rate, Echinochloa crus-galli [5]: 90% | Herbicidal rate, southern crabgrass [6]: 90% | Herbicidal rate, Amaranthus viridis [7]: 60% | Herbicidal rate, Chenopodium album [8]: 60% | Herbicidal rate, Echinochloa crus-galli [9]: 90% | Herbicidal rate, southern crabgrass [10]: 80% | Herbicidal rate, Amaranthus viridis [11]: 90% | Herbicidal rate, Chenopodium album [12]: 90% | Herbicidal rate, Scirpus juncoides [13]: 90% | Herbicidal rate, Echinochloa crus-galli [14]: 100% | Herbicidal rate, Lindernia pyxidaria [15]: 80% | Herbicidal rate, Monochoria vaginalis [16]: 90%
